In patent US8362021B2, “Method for increasing the bioavailability of benzhydryl piperazine containing compounds” (Zalicus Pharmaceuticals Ltd., priority 2006, dated 2013):
Where two headings read alike, the source gives them in different places.

Experiment: Single dose, open-label food effect pharmacokinetic trial of oral capsules in healthy subjects
Type: in vivo, human
Details: for bioavailability / Tmax: human, plasma, po; for bioavailability: healthy subjects; for Tmax: oral administration
Protocol: A single centre, single dose, open-label trial in healthy subjects was conducted. Study drug treatments were as follows: • Treatment A: Compound No. 1, in capsule form (25-400 mg) administered without food; • Treatment B: Compound No. 1, in capsule form (400-800 mg) administered with a normal fat meal; • Treatment C: Compound No. 1, in capsule form (400-1600 mg) administered with a high-fat meal.
In treatment A, subjects fasted overnight with water permitted up to one hour before dosing. One or more 25 mg or 100 mg capsules of Compound No. 1 were administered with 240 mL room temperature water. Subjects continued to fast for approximately 4 hours until lunch. All meals and snacks provided during the study were low fat and standardized. Additional water was allowed ad lib but there was no caffeine, smoking or alcohol and no vigorous exercise.
In treatments B and C, subjects consumed breakfast the day of the study. Breakfast commenced approximately 30 minutes prior to dosing with dosing occurring within 10 minutes after finishing the meal. One or more 25 mg or 100 mg capsules containing Compound No. 1 were administered to the subjects with 240 mL room temperature water. After dosing, subjects consumed no food until lunch and otherwise followed the same protocol as in treatment A.
In treatment B, a normal fat meal consisted of: toast with 1 pat of butter; a banana; 2% milk; apple juice; and Honey Nut Cheerios®. In treatment C, a high fat meal consisted of: 2 slices of buttered toast, 2 eggs fried in butter, 2 slices of bacon, 4 oz hash brown potatoes and 8 oz of whole milk.
Subjects received one or two doses. There was a washout period of at least 14 days between study drug administrations in those subjects dosed more than once. […] The actual dosing and sample times were recorded on a Case Report Form. At least 15 blood samples were collected during the period from pre-dose through 48 hours post-dose; in most subjects, additional samples were obtained at 60, 72, 120, 168 and 336 hours post-dose. Concentrations of Compound No. 1 were determined in plasma by BASi Northwest Laboratories Inc. (McMinnville, Oreg.) by LC-MS/MS. The lower limit of quantitation for Compound No. 1 was 0.05 ng/mL. Sample values below the lower limit of quantitation were reported as “<0.05 ng/mL”.
Pharmacokinetic parameters were obtained using compartmental methods. Relative exposure was quantified through the term relative bioavailability. In that none of the subjects received an intravenous dose of Compound No. 1, absolute bioavailability could not be determined. […] There were no protocol deviations that confounded the pharmacokinetic analyses.
Statistical analyses were performed using NONMEM version 5. Study results were not corrected for drug potency.

O=C(CC(c1ccccc1)c1ccccc1)N1CCN(C(c2ccccc2)c2ccccc2)CC1 [Compound No. 1, 1-(3,3-diphenylpropionyl)-4-benzhydryl piperazine]
bioavailability, normal fat meal vs high fat meal (individual plasma concentrations, FIGS. 3 and 4) (400 mg and 800 mg dosage): increased bioavailability
decrease of bioavailability (fasting compared to a normal fat meal): 32%
increase of bioavailability of capsules (high fat meal compared to a normal fat meal): 460%
bioavailability (typical value, read-out: Relative bioavailability, 25-mg capsules (relative to 100-mg capsules)): 148%
Tmax (subjects fasted): < 2 h
Tmax (subjects fed a high fat meal): 4 to 5 h
Tmax (subjects fed a normal fat meal): 2 to 5 h
bioavailability (oral capsules, typical value of compartmental NONMEM analysis, read-out: Relative bioavailability, Fasted (relative to normal-fat meal)): 68.2%
